Test results as given in PMC10202323, “4′-Deoxypyridoxine disrupts vitamin B6 homeostasis in Escherichia coli K12 through combined inhibition of cumulative B6 uptake and PLP-dependent enzyme activity” (Microbiology, 2023).

Key:
Type in all cases: biochemical
GlyA = molecular target: T1, GlyA (Escherichia coli, UniProt P0A825); test: spectrophotometric coupled SHMT assay; conditions: read-out: apparent inhibition constant
T1 construct: recombinant, purified to homogeneity as previously reported; apoenzyme reconstituted with PLP
T1 sequence (P0A825 1-417): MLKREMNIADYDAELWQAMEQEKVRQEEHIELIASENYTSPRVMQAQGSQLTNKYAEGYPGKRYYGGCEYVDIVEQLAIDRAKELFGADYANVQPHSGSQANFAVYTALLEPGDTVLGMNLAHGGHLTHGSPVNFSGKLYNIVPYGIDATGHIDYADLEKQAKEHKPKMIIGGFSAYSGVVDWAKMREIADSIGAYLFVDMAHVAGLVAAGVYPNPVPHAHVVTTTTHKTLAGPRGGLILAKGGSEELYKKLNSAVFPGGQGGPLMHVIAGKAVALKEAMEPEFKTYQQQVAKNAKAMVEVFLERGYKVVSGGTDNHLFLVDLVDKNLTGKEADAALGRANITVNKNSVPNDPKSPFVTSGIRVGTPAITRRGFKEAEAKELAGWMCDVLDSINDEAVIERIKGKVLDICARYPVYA

PdxH = molecular target: T2, PdxH (Escherichia coli, UniProt P0AFI7); test: spectrophotometric PLP formation at […] nm; conditions: read-out: apparent inhibition constant
T2 construct: recombinant, purified to homogeneity as previously reported
T2 sequence (P0AFI7 2-218): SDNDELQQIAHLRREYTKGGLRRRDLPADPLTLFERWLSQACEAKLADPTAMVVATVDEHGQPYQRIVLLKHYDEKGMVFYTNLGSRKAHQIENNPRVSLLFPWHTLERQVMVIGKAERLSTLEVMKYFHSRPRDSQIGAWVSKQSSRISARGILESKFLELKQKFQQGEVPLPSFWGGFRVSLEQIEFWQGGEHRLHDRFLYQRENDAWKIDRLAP

PdxK = molecular target: T3, PdxK (Escherichia coli, UniProt P40191); test: spectrophotometric PLP formation at […] nm; conditions: read-out: inhibition constant
T3 construct: recombinant, purified to homogeneity as previously reported
T3 sequence (P40191 whole entry): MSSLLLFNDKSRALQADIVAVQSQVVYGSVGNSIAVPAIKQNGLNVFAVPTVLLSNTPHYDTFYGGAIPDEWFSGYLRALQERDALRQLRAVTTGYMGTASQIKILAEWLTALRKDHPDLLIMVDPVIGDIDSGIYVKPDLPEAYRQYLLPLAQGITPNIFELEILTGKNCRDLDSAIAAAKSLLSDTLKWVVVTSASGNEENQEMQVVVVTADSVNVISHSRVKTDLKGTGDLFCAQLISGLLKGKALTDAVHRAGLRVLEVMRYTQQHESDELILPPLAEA

Row | Structure (SMILES) | Ki (GlyA) [µM] | Ki (PdxH) [µM] | Ki (PdxK) [µM]
1 | Cc1ncc(COP(=O)(O)O)c(C)c1O [4dPNP] | 50 ± 30 | 530 ± 30 | –
2 | Cc1ncc(CO)c(C)c1O [4dPN] | – | – | 0.5 ± 0.6
